# Measurements reported in paper PMC9112332, “Structure-Based Design of α-Substituted Mercaptoacetamides as Inhibitors of the Virulence Factor LasB from Pseudomonas aeruginosa” (ACS Infectious Diseases, 2022).
# Read-outs that look alike come from different tables or passages of the source.
# Legend:
# LasB [1] = biological target: T1, LasB (Pseudomonas aeruginosa, UniProt Q02RJ6); conditions: Figure 1; read-out: IC50 (reported LasB inhibitors, Figure 1); cited from earlier work
# LasB [2] = biological target: T1, LasB; assay: LasB inhibition assay (FRET-based, in vitro); conditions: for activity of pure LasB: 0.3 nM pure LasB
# Protocol: LasB Inhibition Assay. The purification of LasB from P. aeruginosa P14 supernatant as well
# as the subsequent performance of the FRET-based in vitro inhibition assay was performed as
# described previously.1 All samples were run in duplicate for each condition, and experiments
# were performed independently at least twice.
# Cytotoxicity assay, A549 = assay type: cell-based; conditions: A549 cells; adenocarcinomic human alveolar basal epithelial cells
# HDAC-3 = HDAC-3 (Homo sapiens, UniProt O15379); assay: Human off-target inhibition assay, HDAC-3; assay type: biochemical
# Protocol: (§1) Table 3 Activities of Four LasB Inhibitors against the Selected MMPs (% of inhibition at 100 μM) and Further Human Off-Targets ^a | column: 3; 12; 13; 23
# G. mellonella larvae = assay: In vivo Galleria mellonella virulence assay; conditions: compound with wt PA14 supernatant, after 6 days
# zebrafish embryos = assay: Zebrafish embryo toxicity (maximum tolerated concentration) assay; assay type: in vivo
# [3] = system: A549 cells treated with ΔlasB PA14 supernatant; assay type: cell-based, human; conditions: 15% (v/v) ΔlasB PA14 supernatant, MTT
# [4] = system: A549 cells treated with wt PA14 supernatant; assay: cells; conditions: Homo sapiens, A549, 24 h, read-out: increase in viability of A549 cells
# ColH-PD = ColH-PD (Hathewaya histolytica, UniProt Q46085); assay: biochemical; design: species or system C. histolyticum
# MMP-7 = biological target: T2, MMP-7 (Homo sapiens, UniProt P09237); assay: Human off-target inhibition assay, MMP-7; assay type: biochemical
# T2 sequence (P09237 95-267): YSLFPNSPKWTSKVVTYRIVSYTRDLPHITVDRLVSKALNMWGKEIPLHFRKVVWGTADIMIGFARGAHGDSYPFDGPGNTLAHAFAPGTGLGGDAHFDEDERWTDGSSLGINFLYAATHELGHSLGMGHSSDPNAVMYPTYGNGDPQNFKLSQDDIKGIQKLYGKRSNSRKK
# MMP-8 = MMP-8 (Homo sapiens, UniProt P22894); assay: Human off-target inhibition assay, MMP-8; assay type: biochemical
# MMP-1 = biological target: T3, MMP-1 (Homo sapiens, UniProt P03956); assay: Human off-target inhibition assay, MMP-1; assay type: biochemical
# T3 sequence (P03956 100-469): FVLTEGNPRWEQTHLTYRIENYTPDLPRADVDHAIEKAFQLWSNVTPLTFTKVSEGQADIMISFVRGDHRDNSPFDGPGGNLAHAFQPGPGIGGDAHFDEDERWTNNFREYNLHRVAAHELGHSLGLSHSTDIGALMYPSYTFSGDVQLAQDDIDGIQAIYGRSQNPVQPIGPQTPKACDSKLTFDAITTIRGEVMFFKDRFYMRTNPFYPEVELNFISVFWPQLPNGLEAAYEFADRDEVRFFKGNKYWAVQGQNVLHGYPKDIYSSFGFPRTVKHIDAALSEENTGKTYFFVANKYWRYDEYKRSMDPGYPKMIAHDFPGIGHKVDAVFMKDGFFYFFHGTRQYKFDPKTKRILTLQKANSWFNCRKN
# [5] = Cytotoxicity assay, HepG2; assay type: cell-based; conditions: HepG2 cells; human hepatoma cell line
# ADAM17 = ADAM17 (Homo sapiens, UniProt P78536); assay: Human off-target inhibition assay, ADAM17 (TACE); assay type: biochemical
# MMP-3 = MMP-3 (Homo sapiens, UniProt P08254); assay: Human off-target inhibition assay, MMP-3; assay type: biochemical
# P. aeruginosa PA14 = assay: Antibacterial activity (MIC) assay; assay type: cell-based, Pseudomonas aeruginosa
# HDAC-8 = biological target: T4, HDAC-8 (Homo sapiens, UniProt Q9BY41); assay: Human off-target inhibition assay, HDAC-8; assay type: biochemical
# T4 sequence (Q9BY41 1-377): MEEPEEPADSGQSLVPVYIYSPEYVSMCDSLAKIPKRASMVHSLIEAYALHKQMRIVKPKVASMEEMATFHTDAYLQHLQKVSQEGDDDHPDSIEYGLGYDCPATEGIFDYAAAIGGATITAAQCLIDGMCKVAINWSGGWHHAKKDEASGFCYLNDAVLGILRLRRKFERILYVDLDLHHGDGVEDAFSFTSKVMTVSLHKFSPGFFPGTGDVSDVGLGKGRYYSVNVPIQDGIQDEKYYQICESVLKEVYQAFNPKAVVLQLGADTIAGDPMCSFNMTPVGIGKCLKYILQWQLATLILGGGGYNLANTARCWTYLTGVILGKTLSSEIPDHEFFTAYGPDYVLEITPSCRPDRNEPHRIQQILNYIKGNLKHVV
# Protocol: as §1
# [6] = system: A549 cells treated with wt PA14 supernatant; conditions: 15% (v/v) wt PA14 supernatant, MTT
# MMP-14 = MMP-14 (Homo sapiens, UniProt P50281); assay: Human off-target inhibition assay, MMP-14; assay type: biochemical
# [7] = Cytotoxicity assay, HEK293; assay type: cell-based; conditions: HEK293 cells; human embryonic kidney cells
# MMP-2 = biological target: T5, MMP-2 (Homo sapiens, UniProt P08253); assay: Human off-target inhibition assay, MMP-2; assay type: biochemical
# T5 sequence (P08253 110-660): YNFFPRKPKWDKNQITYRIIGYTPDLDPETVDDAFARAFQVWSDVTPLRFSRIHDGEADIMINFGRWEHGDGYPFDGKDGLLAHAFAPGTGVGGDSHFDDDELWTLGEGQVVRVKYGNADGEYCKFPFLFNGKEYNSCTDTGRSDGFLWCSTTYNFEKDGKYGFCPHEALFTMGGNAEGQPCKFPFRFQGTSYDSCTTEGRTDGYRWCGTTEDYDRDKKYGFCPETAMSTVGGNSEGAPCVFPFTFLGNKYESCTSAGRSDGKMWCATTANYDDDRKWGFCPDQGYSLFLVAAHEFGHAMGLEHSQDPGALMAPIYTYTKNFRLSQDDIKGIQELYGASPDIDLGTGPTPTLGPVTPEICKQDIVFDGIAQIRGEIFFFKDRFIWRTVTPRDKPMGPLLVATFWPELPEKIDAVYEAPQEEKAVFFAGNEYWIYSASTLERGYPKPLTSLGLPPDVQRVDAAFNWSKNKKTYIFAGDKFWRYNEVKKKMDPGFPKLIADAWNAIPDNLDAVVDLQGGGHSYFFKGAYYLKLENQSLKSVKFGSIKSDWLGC
# T1 sequence (Q02RJ6 198-498): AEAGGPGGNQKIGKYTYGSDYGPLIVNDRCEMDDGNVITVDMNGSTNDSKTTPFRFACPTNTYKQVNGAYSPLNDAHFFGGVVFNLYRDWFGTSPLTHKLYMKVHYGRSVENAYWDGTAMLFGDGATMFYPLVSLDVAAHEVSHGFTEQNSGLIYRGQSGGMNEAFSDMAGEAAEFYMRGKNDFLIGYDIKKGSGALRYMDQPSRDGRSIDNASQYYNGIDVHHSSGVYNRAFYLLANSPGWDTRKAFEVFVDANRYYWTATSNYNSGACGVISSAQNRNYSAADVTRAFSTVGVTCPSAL
# Sequence of ColH-PD (Q46085 331-721 limits assumed): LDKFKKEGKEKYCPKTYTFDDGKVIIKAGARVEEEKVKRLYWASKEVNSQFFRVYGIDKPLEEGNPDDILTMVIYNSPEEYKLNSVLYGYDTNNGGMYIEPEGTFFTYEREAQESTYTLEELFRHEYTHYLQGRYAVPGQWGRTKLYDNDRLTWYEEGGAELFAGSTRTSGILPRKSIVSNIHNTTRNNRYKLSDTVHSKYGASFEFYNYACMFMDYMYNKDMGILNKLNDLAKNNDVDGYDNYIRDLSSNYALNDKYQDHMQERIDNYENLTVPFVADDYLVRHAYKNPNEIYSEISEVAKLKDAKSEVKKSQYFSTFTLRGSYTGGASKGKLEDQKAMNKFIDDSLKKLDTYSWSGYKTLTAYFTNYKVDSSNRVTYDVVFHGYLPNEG
# Sequence of MMP-8 (P22894 101-467): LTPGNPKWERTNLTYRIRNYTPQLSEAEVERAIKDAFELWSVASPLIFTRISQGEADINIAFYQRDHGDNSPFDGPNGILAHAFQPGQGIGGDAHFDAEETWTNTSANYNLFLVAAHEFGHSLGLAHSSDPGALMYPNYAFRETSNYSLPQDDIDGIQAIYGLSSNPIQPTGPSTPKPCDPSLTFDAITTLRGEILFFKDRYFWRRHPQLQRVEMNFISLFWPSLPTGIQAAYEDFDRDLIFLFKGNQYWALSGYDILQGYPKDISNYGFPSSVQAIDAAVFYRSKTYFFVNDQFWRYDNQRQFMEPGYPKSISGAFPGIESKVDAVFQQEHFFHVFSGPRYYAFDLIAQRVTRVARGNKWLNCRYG
# Sequence of MMP-3 (P08254 100-477): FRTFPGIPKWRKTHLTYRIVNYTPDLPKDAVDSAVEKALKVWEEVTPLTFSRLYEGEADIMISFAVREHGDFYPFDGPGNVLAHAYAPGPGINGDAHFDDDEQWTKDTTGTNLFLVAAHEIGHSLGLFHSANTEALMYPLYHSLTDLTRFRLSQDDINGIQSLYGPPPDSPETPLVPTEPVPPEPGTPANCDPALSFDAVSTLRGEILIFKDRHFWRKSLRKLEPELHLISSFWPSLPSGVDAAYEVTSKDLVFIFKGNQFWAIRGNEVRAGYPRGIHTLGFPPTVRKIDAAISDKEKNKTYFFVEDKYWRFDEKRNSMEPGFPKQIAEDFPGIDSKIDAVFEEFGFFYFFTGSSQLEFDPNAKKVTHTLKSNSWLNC
# Sequence of HDAC-3 (O15379 whole entry): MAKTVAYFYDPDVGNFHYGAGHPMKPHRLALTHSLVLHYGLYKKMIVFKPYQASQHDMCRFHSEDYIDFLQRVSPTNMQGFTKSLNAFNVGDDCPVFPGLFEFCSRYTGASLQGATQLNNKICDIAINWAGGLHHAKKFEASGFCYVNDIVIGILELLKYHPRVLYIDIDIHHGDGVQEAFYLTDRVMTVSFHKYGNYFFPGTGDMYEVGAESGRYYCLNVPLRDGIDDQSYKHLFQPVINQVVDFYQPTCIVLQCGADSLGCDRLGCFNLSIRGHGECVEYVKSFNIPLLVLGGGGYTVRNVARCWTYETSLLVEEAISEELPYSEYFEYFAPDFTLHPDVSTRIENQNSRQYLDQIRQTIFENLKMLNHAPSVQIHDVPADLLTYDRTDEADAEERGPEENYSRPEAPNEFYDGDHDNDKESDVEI
# Sequence of HDAC-3 (Q9Y618 395-489 partner limits assumed): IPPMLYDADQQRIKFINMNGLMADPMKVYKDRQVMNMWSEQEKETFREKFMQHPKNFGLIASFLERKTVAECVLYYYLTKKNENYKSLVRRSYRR
# Sequence of ADAM17 (P78536 215-824): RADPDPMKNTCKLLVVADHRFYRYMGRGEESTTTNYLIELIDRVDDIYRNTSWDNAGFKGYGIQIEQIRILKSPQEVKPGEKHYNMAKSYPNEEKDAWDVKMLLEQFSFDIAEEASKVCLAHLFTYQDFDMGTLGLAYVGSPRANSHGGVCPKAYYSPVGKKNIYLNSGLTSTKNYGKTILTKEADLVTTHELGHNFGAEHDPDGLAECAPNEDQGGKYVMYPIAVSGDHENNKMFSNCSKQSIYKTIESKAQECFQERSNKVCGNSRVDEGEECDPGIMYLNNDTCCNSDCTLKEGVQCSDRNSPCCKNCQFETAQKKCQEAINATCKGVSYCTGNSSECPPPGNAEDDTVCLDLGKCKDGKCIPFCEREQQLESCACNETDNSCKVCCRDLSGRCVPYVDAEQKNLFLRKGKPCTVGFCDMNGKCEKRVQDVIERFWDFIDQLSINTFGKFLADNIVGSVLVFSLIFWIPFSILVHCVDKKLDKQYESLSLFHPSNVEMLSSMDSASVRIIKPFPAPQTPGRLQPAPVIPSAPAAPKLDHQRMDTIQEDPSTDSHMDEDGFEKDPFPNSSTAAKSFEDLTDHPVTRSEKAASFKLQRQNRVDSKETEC
structure (smiles),measurement,setting,value
O=C(O)CC1(C(=O)NCc2nc3ccccc3s2)Cc2ccccc2C1 [Compound 1],IC50,LasB [1],0.159 µM
"Cl.O=C(O)CCP(CCC(=O)O)CCC(=O)O [TCEP, Tris(2-carboxyethyl)phosphine hydrochloride]",viability of A549 cells,A549 cells,no effect on cell viability
same,activity of pure LasB,LasB [2]; 0.6 mM TCEP and lower,no inhibition
same,activity of pure LasB,LasB [2]; 5 mM and […] TCEP,completely lost
"O=C(Nc1nc2ccccc2s1)C(S)Cc1ccccc1 (stereo not shown) [Compound 23, N-(Benzo[d]thiazol-2-yl)-2-mercapto-3-phenylpropanamide]",IC50,"Cytotoxicity assay, A549",> 100 µM
same,IC50,HDAC-3,> 100 µM
same,survival of larvae,G. mellonella larvae,70 ± 5%
same,Survival rate %,zebrafish embryos; 2 µM,100%
same,Survival rate %,zebrafish embryos; 30 µM,70%
same,toxicity (larvae with toxicity signs),"zebrafish embryos; 30 µM, Table S2",30%
same,embryo observation,"zebrafish embryos; 50 µM, 2 dpf",imp. dev.
same,embryo observation,"zebrafish embryos; 50 µM, 3 dpf",5 imp. dev.
same,embryo observation,"zebrafish embryos; 50 µM, 4 dpf",5 imp. dev.
same,embryo observation,"zebrafish embryos; 50 µM, 5 dpf",5 imp. dev.
same,Survival rate %,zebrafish embryos; 100 µM,0%
same,embryo observation,"zebrafish embryos; 100 µM, 2 dpf",imp. dev.
same,embryo observation,"zebrafish embryos; 100 µM, 3 dpf",5 imp. dev.
same,embryo observation,"zebrafish embryos; 100 µM, 4 dpf",5 imp. dev.
same,embryo observation,"zebrafish embryos; 100 µM, 5 dpf",5 imp. dev.
same,maximum tolerated concentration (MTC),"zebrafish embryos; zebrafish embryos, until 120 hpf",≤ 30 µM
same,effect on A549 cells treated with ΔlasB PA14 supernatant (in words),[3],no effect
same,viability at 50 µM,[4],80 ± 15%
same,Ki,ColH-PD,0.1 ± 0.01 µM
same,inhibition at 100 µM,MMP-7,< 10%
same,inhibition at 100 µM,MMP-8,< 10%
same,inhibition at 100 µM,MMP-1,< 10%
same,IC50,[5],> 100 µM
same,IC50,ADAM17,10.4 ± 0.2 µM
same,IC50,LasB [2],0.7 ± 0.1 µM
same,ligand efficiency (LE),LasB [2]; calculated from LasB activity,0.48
same,lipophilic ligand efficiency (LLE),LasB [2]; calculated from LasB activity,3.21
same,inhibition at 100 µM,MMP-3,< 10%
same,MIC,"P. aeruginosa PA14; Pseudomonas aeruginosa, P. aeruginosa PA14",> 100 µM
same,reduction of bacterial growth,P. aeruginosa PA14; at 100 μM,less than 10%
same,IC50,HDAC-8,> 100 µM
same,effect on viability of A549 cells treated with wt PA14 supernatant (in words),[6],Dose-dependent effect
same,inhibition at 100 µM,MMP-14,< 10%
same,IC50,[7],> 100 µM
same,inhibition at 100 µM,MMP-2,< 10%
O=C(CC(=O)Nc1ccc(Cl)c(Cl)c1)NO [Compound 2],IC50,LasB [1],17.4 µM
